Experimental data taken from PubChem BioAssay (NCI).
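Each compound was tested at five concentrations against cells in 96-well plates for 48 hours. GI50 = concentration required for 50% inhibition of growth. Definition used: TGI = concentration required for complete inhibition of growth.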

Tests used:
Assay in all cases: NCI tumour cell line growth inhibition, 48 h
XF 498 CNS = system: XF 498 CNS
KM20L2 colon = system: KM20L2 colon
RXF 393 renal = system: RXF 393 renal
P388/ADR leukemia = system: P388/ADR leukemia
P388 leukemia = system: P388 leukemia
NCI-H23 lung = system: NCI-H23 lung
TK-10 renal = system: TK-10 renal
DMS 114 small cell lung = system: DMS 114 small cell lung
LXFL 529 NSCLC = system: LXFL 529 NSCLC
MDA-MB-231 breast = system: MDA-MB-231 breast
PC-3 prostate = system: PC-3 prostate
T-47D breast = system: T-47D breast
786-0 renal = system: 786-0 renal

SMILES | TGI (XF 498 CNS) [µM] | TGI (KM20L2 colon) [µM] | TGI (RXF 393 renal) [µM] | TGI (P388/ADR leukemia) [µM] | TGI (P388 leukemia) [nM] | TGI (NCI-H23 lung) [µM] | TGI (TK-10 renal) [µM] | TGI (DMS 114 small cell lung) [µM] | TGI (MDA-MB-231 breast) [µM] | TGI (PC-3 prostate) [µM] | TGI (T-47D breast) [µM] | also measured
COc1cc(C2c3cc4c(cc3[C@@H](Nc3ccc(N5CCOCC5)cc3)C3COC(=O)[C@H]23)OCO4)cc(OC)c1O (stereo not given in full) | 4.23 | 3.91 | 5.86 | 1.07 | 1010 |  |  |  |  |  |  | 
N/C(=N\N=C/c1cc(Cl)cc(Cl)c1O)NO | 6.45 | 30.2 | 26.8 |  | 1490 | 19.8 |  |  |  |  |  | 
Cn1nc2ccc3nccc(NCCNCCCl)c3c2n1 | > 100 | > 100 | > 100 |  |  |  | > 100 | > 100 |  |  |  | TGI (LXFL 529 NSCLC): > 100 µM
CCOC(=O)C1CCn2c(nc3c(=O)n(C)c(=O)n(C)c32)S1 (stereo not given) |  | > 100 | > 100 |  |  | > 100 | > 100 |  |  |  |  | TGI (LXFL 529 NSCLC): > 100 µM
CC1=NN(C(=O)c2ccccc2)C(=O)C1N=Nc1ccccc1C(=O)O (stereo not given) | 69.9 | > 100 | > 100 | > 44.7 | > 46300 | > 40.6 |  | > 100 |  |  |  | 
CCNC(=O)CCCCC(=O)c1c(C)[nH]c(/C=C2\N=C(c3ccc[nH]3)C=C2OC)c1C |  |  | 8.41 |  |  | 24.5 | 5.37 |  | 4.32 | 5.8 | 6.43 | GI50 (NCI-H23 lung): 4.5 µM; GI50 (MDA-MB-231 breast): 2040 nM; GI50 (TK-10 renal): 2370 nM; GI50 (PC-3 prostate): 1630 nM; GI50 (RXF 393 renal): 2970 nM; GI50 (T-47D breast): 2680 nM
O=C(/C=C\c1ccc(OCCCCCC[P+](c2ccccc2)(c2ccccc2)c2ccccc2)cc1)c1ccc2c(c1)OCCO2 |  |  |  |  |  |  | 3.81 |  |  |  |  | GI50 (TK-10 renal): 1580 nM
O=C(O)C1C2CCC(C2)C1c1ccccc1 (stereo not given) |  |  | > 100 |  |  | > 100 | > 100 |  | > 100 | > 100 | > 100 | TGI (786-0 renal): > 100 µM
COC(=O)C[C@](O)(CCC(C)(C)O)C(=O)O[C@@H]1C(OC)=C[C@]23CCCN2CCc2cc4c(cc2[C@H]13)OCO4 |  | 0.74 | 0.518 | > 100 | 133 | 0.323 |  | 0.0597 |  |  |  | 
Cc1cc(C)c(N)c(C)c1N |  | > 100 | > 100 |  |  | > 100 | > 100 | > 100 |  |  |  | TGI (786-0 renal): > 100 µM; TGI (LXFL 529 NSCLC): > 100 µM
CCOC(=O)CCc1c(C)c2c(O)cc(O)cc2oc1=O | > 100 | > 100 | > 100 | > 100 | > 100000 | > 100 |  |  |  |  |  | 
O=C(/C=C/c1ccsc1)c1ccc(Cl)s1 |  |  |  |  |  | > 100 | > 100 |  | > 100 | > 100 | > 100 | 
CC(C(O)c1ccccc1)[N+](=O)[O-] (stereo not given) |  |  | 27.7 |  |  | > 100 | 72 |  | 59.2 | 45.3 | 59.5 | TGI (786-0 renal): > 100 µM
